According to patent US9096608B2, “Pharmaceutically active pyrazolo-triazine derivatives” (LEAD DISCOVERY CENTER GMBH, priority 2012, dated 2015):

Legend:
Format in all cases: biochemical
CDK7/CycH/Mat1 = biological target: T1, CDK7/CycH/Mat1 (Homo sapiens, UniProt P50613); assay: CDK7 Enzymatic Activity Assay (Lance Kinase Activity Assay, FRET); conditions: Table 5A; 25 μM ATP final; read-out: CDK7: IC50 [mM] for CDK7 inhibition (the above defined ranges apply)
T1 construct: purchased Carna
Method in brief: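 TR-FRET (LANCE) kinase assay with ULight-MBP peptide substrate and Eu-labelled anti-phospho antibody; compounds in 8-point 1:3 series in HEPES 50 mM pH 7.5, MgCl2 10 mM, EGTA 1 mM, DTT 2 mM, 0.01% Tween-20.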

CDK2/CycA = biological target: T2, CDK2/CycA (Homo sapiens, UniProt P24941); assay: CDK2 Enzymatic Activity Assay (Lance Kinase Activity Assay, FRET); conditions: Table 5B; symbols per IC50 ranges of b615
T2 construct: purchased Proqinase
Experimental: This protocol describes how the Lance Kinase Activity Assay was performed to determine IC50 values of compounds of general formula (I) against CDK/Cyclin complexes. The principle behind this enzymatic assay is based upon the phosphorylation of the Ulight-Peptide Substrat. It is detected by using a specific EU-labeled anti-phospho peptide antibody.
Binding of an inhibitor to the kinase prevents phosphorylation of the ULlight-MBP Substrat, resulting in a loss of FRET.
CDK2 Enzymatic Activity Assay
The compounds of general formula (I) exemplary summarized in Table 1 were diluted from a 10 mM DMSO stock solution 1:10 in a total volume of 15 μl DMSO. This compound predilution was then serial diluted 1:3 over 8 steps in DMSO and briefly spun down. Each compound solution was now diluted 1:20 in Enzymatic Buffer (HEPES: 50 mM, pH: 7.5; MgCl2: 10 mM; EGTA: 1 mM; DTT: 2 mM; Tween-20: 0.01%), mixed thoroughly and spun down.
For positive controls, 2 μl of DMSO working solution were mixed with 6 μl CDK2/CycA/substrate working solution and 2 μl ATP working solution. Positive and negative controls were calculated from at least 8 different wells. The 384 well plates were mixed in a Teleshaker plate mixer (Beckman Coulter, Brea, Calif., USA) at 2000 rpm for 40 sec, and incubated for 1 h at room temperature before addition of 10 μl LANCE Detection Buffer (EDTA: […]; Eu-Anti-P-MBP: 4 nM) per well. Plates were mixed in a Teleshaker plate mixer (Beckman Coulter, Brea, Calif., USA) at 2000 rpm for […], followed by incubation with Detection Buffer for 1 h, and reading. […] IC50 values were determined from the sigmoidal dose response curves with the software Quattro Workflow (Quattro GmbH, Munich, Germany).

CDK9/Cyclin T1 = biological target: T3, CDK9/Cyclin T1 (Homo sapiens, UniProt P50750); assay: CDK9 Enzymatic Activity Assay (Lance Kinase Activity Assay, FRET); conditions: Table 5B; symbols per IC50 ranges of b615
T3 construct: purchased Invitrogen
Method in brief: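 TR-FRET detection of ULight-MBP substrate phosphorylation by CDK9/cyclin T1 using a Eu-anti-phospho-MBP antibody, in 50 mM HEPES pH 7.5, 10 mM MgCl2, 1 mM EGTA, 2 mM DTT, 0.01% Tween-20. Kinase reaction 1 h at room temperature, then EDTA detection buffer for 1 h before reading.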

T1 sequence (P50613 whole entry): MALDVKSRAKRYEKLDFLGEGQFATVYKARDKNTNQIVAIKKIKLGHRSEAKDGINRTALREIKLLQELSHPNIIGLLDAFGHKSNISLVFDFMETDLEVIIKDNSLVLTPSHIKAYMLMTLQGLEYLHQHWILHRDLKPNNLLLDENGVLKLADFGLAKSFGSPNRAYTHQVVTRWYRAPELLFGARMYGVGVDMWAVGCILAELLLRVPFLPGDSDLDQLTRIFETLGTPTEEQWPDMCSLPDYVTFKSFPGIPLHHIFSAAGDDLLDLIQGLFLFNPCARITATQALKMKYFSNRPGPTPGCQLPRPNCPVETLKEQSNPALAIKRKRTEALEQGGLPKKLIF
T1 sequence (P51946 whole entry partner): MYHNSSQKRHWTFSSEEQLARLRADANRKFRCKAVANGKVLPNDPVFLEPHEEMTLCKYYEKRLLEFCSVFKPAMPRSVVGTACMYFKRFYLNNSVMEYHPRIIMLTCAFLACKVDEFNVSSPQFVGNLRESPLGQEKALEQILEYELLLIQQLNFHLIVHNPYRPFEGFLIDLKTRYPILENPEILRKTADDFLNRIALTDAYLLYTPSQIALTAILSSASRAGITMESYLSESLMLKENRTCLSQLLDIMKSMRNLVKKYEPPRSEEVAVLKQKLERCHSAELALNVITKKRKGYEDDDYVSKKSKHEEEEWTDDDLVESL
T1 sequence (P51948 whole entry partner): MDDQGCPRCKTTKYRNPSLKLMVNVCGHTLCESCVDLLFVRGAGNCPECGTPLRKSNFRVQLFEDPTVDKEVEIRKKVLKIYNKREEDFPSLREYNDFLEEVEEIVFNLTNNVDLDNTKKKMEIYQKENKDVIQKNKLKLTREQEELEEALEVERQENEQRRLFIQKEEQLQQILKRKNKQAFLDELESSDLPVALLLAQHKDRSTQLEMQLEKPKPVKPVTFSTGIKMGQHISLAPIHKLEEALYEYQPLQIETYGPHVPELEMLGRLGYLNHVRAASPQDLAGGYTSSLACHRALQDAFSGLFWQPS
T3 sequence (P50750 whole entry): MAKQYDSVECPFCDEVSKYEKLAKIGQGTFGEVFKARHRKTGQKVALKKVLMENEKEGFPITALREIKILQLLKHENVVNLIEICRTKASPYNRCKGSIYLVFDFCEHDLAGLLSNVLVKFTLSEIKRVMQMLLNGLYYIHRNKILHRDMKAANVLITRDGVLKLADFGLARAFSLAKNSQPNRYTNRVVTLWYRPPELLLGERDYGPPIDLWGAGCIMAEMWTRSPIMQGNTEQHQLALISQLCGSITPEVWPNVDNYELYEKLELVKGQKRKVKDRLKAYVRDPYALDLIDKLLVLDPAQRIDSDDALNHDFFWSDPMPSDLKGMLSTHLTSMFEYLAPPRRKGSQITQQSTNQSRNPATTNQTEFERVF
T3 sequence (O60563 whole entry partner): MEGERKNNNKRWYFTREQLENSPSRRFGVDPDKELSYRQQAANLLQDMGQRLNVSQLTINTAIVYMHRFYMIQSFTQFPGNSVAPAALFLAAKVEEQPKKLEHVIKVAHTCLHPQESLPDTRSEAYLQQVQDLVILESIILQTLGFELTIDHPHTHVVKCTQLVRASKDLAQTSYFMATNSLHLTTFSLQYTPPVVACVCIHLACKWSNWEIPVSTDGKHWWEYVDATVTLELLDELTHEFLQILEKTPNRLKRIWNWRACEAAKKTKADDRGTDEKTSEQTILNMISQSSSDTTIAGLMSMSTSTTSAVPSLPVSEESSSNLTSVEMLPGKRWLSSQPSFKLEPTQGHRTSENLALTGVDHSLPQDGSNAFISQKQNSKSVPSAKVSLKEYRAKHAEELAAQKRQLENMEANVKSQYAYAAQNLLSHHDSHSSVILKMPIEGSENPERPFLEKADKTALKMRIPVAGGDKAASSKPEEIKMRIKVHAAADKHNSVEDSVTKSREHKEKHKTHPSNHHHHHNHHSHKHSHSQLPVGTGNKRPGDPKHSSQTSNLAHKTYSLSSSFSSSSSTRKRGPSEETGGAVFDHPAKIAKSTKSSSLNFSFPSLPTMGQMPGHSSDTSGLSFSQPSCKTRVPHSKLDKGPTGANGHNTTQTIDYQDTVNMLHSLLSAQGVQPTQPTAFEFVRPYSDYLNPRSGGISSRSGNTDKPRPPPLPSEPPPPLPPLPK

Row | IC50 (CDK7/CycH/Mat1) | CDK2 IC50 range class (CDK2/CycA) | CDK9: Selectivity of CDK7 inhibition over CDK9 inhibition [fold] (CDK9/Cyclin T1) | Compound
1 | < 10 nM | +++ (IC50>2500 nM) | +++ (IC50>2500 nM) | COc1cccc([C@H](C)Nc2nc(N3CCCC4(CCCCN4)C3)nc3c(C(C)C)cnn23)c1 (stereo partly drawn) [(VIII-ah), 8-isopropyl-N-((S)-1-(3-methoxyphenyl)ethyl)-2-(1,8-diazaspiro[5.5]undecan-8-yl)pyrazolo[1,5-a][1,3,5]triazin-4-amine]
2 | > 100 nM | +++ (IC50>2500 nM) | +++ (IC50>2500 nM) | COc1cc(OC)cc(C(C)Nc2nc(O[C@@H]3CCCNC3)nc3c(C(C)C)cnn23)c1 (stereo partly drawn) [(VII-bg), N-(1-(3,5-dimethoxy-phenyl)ethyl)-8-isopropyl-2-((R)-piperidin-3-yloxy)pyrazolo[1,5-a][1,3,5]triazin-4-amine]
3 | > 100 nM | +++ (IC50>2500 nM) | +++ (IC50>2500 nM) | COc1cccc([C@H](C)Nc2nc(CN3CCNCC3)nc3c(C(C)C)cnn23)c1 [(XXIX-1), (S)-8-isopropyl-N-(1-(3-methoxyphenyl)ethyl)-2-(piperazin-1-ylmethyl)pyrazolo[1,5-a][1,3,5]triazin-4-amine]
4 | > 100 nM | +++ (IC50>2500 nM) | +++ (IC50>2500 nM) | COc1cccc([C@H](C)Nc2nc(OCCN3CCNCC3)nc3c(C(C)C)cnn23)c1 [(VII-bn), (S)-8-isopropyl-N-(1-(3-methoxyphenyl)ethyl)-2-(2-(piperazin-1-yl)ethoxy)pyrazolo[1,5-a][1,3,5]triazin-4-amine]
5 | 10 to 30 nM | +++ (IC50>2500 nM) | +++ (IC50>2500 nM) | CC(C)c1cnn2c(NC(C)c3cccc4ncccc34)nc(OC3CC4(CC(N)C4)C3)nc12 (stereo not drawn) [(VII-cc), 2-((6-aminospiro[3.3]heptan-2-yl)oxy)-8-isopropyl-N-(1-(quinolin-5-yl)ethyl)pyrazolo[1,5-a][1,3,5]triazin-4-amine]
6 | > 100 nM | +++ (IC50>2500 nM) | +++ (IC50>2500 nM) | COc1cccc([C@H](C)Nc2nc(SC3CCNCC3)nc3c(C(C)C)cnn23)c1 [(X-e), (S)-8-isopropyl-N-(1-(3-methoxyphenyl)ethyl)-2-(piperidin-4-ylthio)pyrazolo[1,5-a][1,3,5]triazin-4-amine]
7 | < 10 nM | +++ (IC50>2500 nM) | +++ (IC50>2500 nM) | CC(C)c1cnn2c(N[C@@H](C)c3ccccc3)nc(OC3CCC(N)CC3)nc12 (stereo partly drawn) [(VII-k), (S)-2-((4-aminocyclohexyl)oxy)-8-isopropyl-N-(1-phenylethyl)pyrazolo[1,5-a][1,3,5]triazin-4-amine]
8 | < 10 nM | +++ (IC50>2500 nM) | +++ (IC50>2500 nM) | CC(C)c1cnn2c(N[C@@H](C)c3ccccc3)nc([S+]([O-])C3CCNCC3)nc12 (stereo partly drawn) [(X-a), 8-isopropyl-N-((S)-1-phenylethyl)-2-(piperidin-4-ylsulfinyl)pyrazolo[1,5-a][1,3,5]triazin-4-amine]
9 | < 10 nM | +++ (IC50>2500 nM) | +++ (IC50>2500 nM) | CC(C)c1cnn2c(N[C@@H](C)c3ccccc3Br)nc(O[C@@H]3CCCNC3)nc12 [(VII-be), N-((S)-1-(2-bromophenyl)ethyl)-8-isopropyl-2-((R)-piperidin-3-yloxy)pyrazolo[1,5-a][1,3,5]triazin-4-amine]
10 | > 100 nM | +++ (IC50>2500 nM) | +++ (IC50>2500 nM) | COc1ccc(C(C)Nc2nc(O[C@@H]3CCCNC3)nc3c(C(C)C)cnn23)cc1 (stereo partly drawn) [(VII-an), 8-isopropyl-N-(1-(4-methoxyphenyl)ethyl)-2-((R)-piperidin-3-yloxy)pyrazolo[1,5-a][1,3,5]triazin-4-amine]

The remaining lines, values behind:

Row | Compound | IC50 (CDK7/CycH/Mat1) | CDK2 IC50 range class (CDK2/CycA) | CDK9: Selectivity of CDK7 inhibition over CDK9 inhibition [fold] (CDK9/Cyclin T1)
11 | COc1cccc([C@H](C)Nc2nc(OC3COC4(CCNCC4)C3)nc3c(C(C)C)cnn23)c1 (stereo partly drawn) [(VII-bx), 2-(1-oxa-8-azaspiro[4.5]decan-3-yloxy)-8-isopropyl-N-((S)-1-(3-methoxyphenyl)ethyl)pyrazolo[1,5-a][1,3,5]triazin-4-amine] | < 10 nM | +++ (IC50>2500 nM) | +++ (IC50>2500 nM)
12 | COc1cccc([C@H](C)Nc2nc(CNC3CCNC3)nc3c(C(C)C)cnn23)c1 (stereo partly drawn) [(XXIX-4), 8-isopropyl-N-((S)-1-(3-methoxyphenyl)ethyl)-2-((pyrrolidin-3-ylamino)methyl)pyrazolo[1,5-a][1,3,5]triazin-4-amine] | 30 to 100 nM | +++ (IC50>2500 nM) | +++ (IC50>2500 nM)
13 | CC(C)c1cnn2c(NC(C)c3ccccc3-c3ccccc3)nc(O[C@@H]3CCCNC3)nc12 (stereo partly drawn) [(VII-as), N-(1-([1,1′-biphenyl]-2-yl)ethyl)-8-isopropyl-2-((R)-piperidin-3-yloxy)pyrazolo[1,5-a][1,3,5]triazin-4-amine] | > 100 nM | +++ (IC50>2500 nM) | +++ (IC50>2500 nM)
14 | COc1cccc([C@H](C)Nc2nc(CN3CC(N4CCC(F)(F)C4)C3)nc3c(C(C)C)cnn23)c1 [(XXIX-9), (S)-2-((3-(3,3-difluoropyrrolidin-1-yl)azetidin-1-yl)methyl)-8-isopropyl-N-(1-(3-methoxyphenyl)ethyl)pyrazolo[1,5-a][1,3,5]triazin-4-amine] | > 100 nM | +++ (IC50>2500 nM) | +++ (IC50>2500 nM)
15 | COc1cccc([C@H](C)Nc2nc(N(C)CCN3CCCC3)nc3c(C(C)C)cnn23)c1 [(VIII-k), (S)-8-isopropyl-N4-(1-(3-methoxyphenyl)ethyl)-N2-methyl-N2-(2-(pyrrolidin-1-yl)ethyl)pyrazolo[1,5-a][1,3,5]triazine-2,4-diamine] | > 100 nM | +++ (IC50>2500 nM) | +++ (IC50>2500 nM)
16 | CC(C)Oc1cccc([C@H](C)Nc2nc(O[C@@H]3CCCNC3)nc3c(C(C)C)cnn23)c1 [(VII-bc), N-((S)-1-(3-isopropoxy-phenyl)ethyl)-8-isopropyl-2-((R)-piperidin-3-yloxy)pyrazolo[1,5-a][1,3,5]triazin-4-amine] | 10 to 30 nM | +++ (IC50>2500 nM) | +++ (IC50>2500 nM)
17 | CC(C)COc1cccc([C@H](C)Nc2nc(O[C@@H]3CCCNC3)nc3c(C(C)C)cnn23)c1 [(VII-bb), N-((S)-1-(3-isobutoxyphenyl)ethyl)-8-isopropyl-2-((R)-piperidin-3-yloxy)pyrazolo[1,5-a][1,3,5]triazin-4-amine] | 30 to 100 nM | +++ (IC50>2500 nM) | +++ (IC50>2500 nM)
18 | COc1cccc([C@H](C)Nc2nc(N3CC4CCNC4C3)nc3c(C(C)C)cnn23)c1 (stereo partly drawn) [(VIII-r), 2-(hexahydropyrrolo[3,4-b]pyrrol-5(1H)-yl)-8-isopropyl-N-((S)-1-(3-methoxyphenyl)ethyl)pyrazolo[1,5-a][1,3,5]triazin-4-amine] | > 100 nM | +++ (IC50>2500 nM) | +++ (IC50>2500 nM)
